Data reported in patent US20030148966A1, “Method and composition for inducing apoptosis in cells” (priority 2002, published 2003).
“And” between values parts separate entries of the source, which are not always exact repeats. Equal entries are not always repeated. Where two headings read alike, the source gives them in different places.

Experiments:
HL-60 cells [1] = assay: Comet assay (single cell gel electrophoresis), DNA strand breaks; assay type: cell-based, human; settings: for DNA tail length: % of cells <= 25 μm: 16 hours, alkaline pH 13.0; for DNA single strand breaks: alkaline pH (13.0)
HL-60 cells [2] = assay: Deoxyribonucleotide (dNTP) extraction and DNA-polymerase assay; assay type: cell-based, human; settings: 16 hours; for % dATP / % dCTP: percent of control
Procedure: The TCA extract was dried using a Speedvac drying system at room temperature and, if necessary, stored at −20° C. until analysis. The assay for dNTP, which is based on the original DNA-polymerase assay^22, was optimized by the use of 96-well plates^23 and tailor-made oligonucleotides^24,25, and was performed as previously described for dCTP^21. After reconstitution of the samples in Hepes-buffered assay buffer (pH 7.3) at 10^7 cells/ml, samples and standards (0, 1, 2.5 and 5 pmol dNTP) were added to diethylaminoethyl (DEAE) filter plates (Millipore, Ettenleur, The Netherlands). This was followed by the addition of demi water (up to 30 μl if a reaction mix, consisting of 10 μl [8-^3H]dATP (25 μM; 1.6 Ci/mmol; 0.04 μCi/μl) for detection of dCTP, dTTP and dGTP and 10 μl[CH3-^3H]dTTP (25 μM; 1.6 Ci/mmol; 0.04 μCi/μl) for dATP detection, 5 μl appropriate oligonucleotide (6 μM. consisting of a primer attached to one of four possible templates specially designed for the detection of one of the four dNTPs), 5 μl Klenow DNA pol I and […] assay buffer. The filterplates were gently vortexed and incubated at room temperature for 2 hours. The wells were washed, the wet filters punched out and radioactivity counted as described^21. The dNTP levels were determined after 16-hours of treatment. At this time point, cells were still alive and membranes intact, preventing non-specific loss of dNTP's^33. […] Whereas, dCTP (89% of control)- and dATP (81% of control)-levels were in the range of control when cells were treated with 5 μM BR, exposure to 20 μM BR, caused a drop in dCTP and dATP levels to 37% and 33%, respectively.

HL-60 cells [3] = settings: 48 hours
in vitro = settings: human
HL-60 cells [4] = assay: ATP bioluminescence assay (intracellular ATP content); assay type: cell-based, human; settings: 16 hours, percent of untreated control
Procedure: ATP content was measured with the ATP bioluminescence assay kit HS II from Boehringer Mannheim (Roche Molecular Biochemicals, Mannheim, Germany). Cells were treated with adenosine and BR for 16 hours, and subsequently their viability was measured by trypan blue exclusion. […] An equal amount of cell lysis reagent was then added, and after an incubation period of 5 minutes at room temperature, the samples were transferred to microtiter plates. A Luciferase reagent (100 μl) was added and the signal was detected immediately on a lumi Imager F1 (Roche). Experiments were done in triplicates, and the values of treated samples calculated as percent of untreated controls. […] Cells were harvested and the intercellular ATP content was measured as described in herein. Statistical analysis by t-test confirmed that the differences between ATP-levels after treatment with BR (+/−adenosine) were significant (p<0.05).

HL-60 cells [5] = assay: Western blots: PARP, gelsolin and Caspase 3 cleavage; assay type: cell-based, human
Procedure: Cells from treated and untreated cultures were sedimented, washed in cold PBS, and lysed in SDS sample buffer (25 mM TRIS pH 6.8, 3% SDS, 10% glycerol, 36 mM DTT, 0.925 mM EDTA). Equal amounts of protein (calculated with the Dot Metric Protein Assay Kit from Novus Molecular, San Diego, Calif., USA) were loaded onto 10% or 15% polyacrylamide gels. Proteins were electrophoresed at 80 V for 2 to 3 hours, and then transblotted onto PVDF membranes (Hybond P, Amersham International, UK) at 80 V for 2 hours^20. Membranes were quenched in PBS with 0.5% skim milk and 0.05% Tween 20 for 1 hour, incubated with primary antibodies (mouse monoclonal anti PARP C-2-10 used 1:2000, mouse monoclonal anti-gelsolin used 1:2000, Sigma; rabbit polyclonal anti caspase 3 antibody used 1:1000, St. Cruz) overnight at 4° C., and with horseradish peroxidase, conjugated secondary antibody for 2 hours at room temperature. The ECL kit (Amersham International, UK) was used for blot development; chemiluminescence was detected on Kodak Xomat UV films.
Controls were treated with saline for 24 hours and western blots were performed as described herein. The 89 kD cleavage product of PARP and the 41 kD cleavage product of gelsolin could be detected upon treatment with 5 μM and 10 μM BR, and diminished in response to higher doses of BR.
5 μM and 10 μM BR, which mainly induce apoptosis, triggering processing of caspase 3.20 μM and 40 μM BR mainly provokes necrosis. This is also reflected by the reduced levels of activated caspase 3. In the presence of adenosine, 20 μM and 40 μM BR activate caspase 3 and also induce apoptosis. Equal sample loading was controlled by Ponceau S staining.

leukemia cells = assay: Oncolytic activity against leukemia cells; assay type: cell-based
HL-60 cells [6] = assay: Transmission electron microscopy of cell morphology; assay type: cell-based, human; settings: 48 hours
Procedure: For transmission electron microscopy (TEM) cells treated with PBS (controls), […] glutaraldehyde (in 0.1 M sodium cacodylate buffer with 4% sucrose, pH 7.2) for 45 minutes, washed in sodium cacodylate buffer and post-fixed in 2% osmium tetroxide (in 0.1 M sodium cacodylate buffer with 4% sucrose) for 45 minutes. Following several washes, the cells were concentrated by centrifugation at 150 g for 5 minutes, dehydrated in a graded series of ethanol, washed in propylene oxide, embedded in Epon (Serva, Germany), and sectioned at about 70 nm. The ultra-thin sections were stained with uranyl acetate/lead citrate for observation with a Zeiss EM 902 transmission electron microscope.
The bars at the lower right corners indicated 1.1 μm.

Nc1ncnc2c1ncn2[C@@H]1O[C@H](CO)[C@@H](O)[C@H]1O [Ade, adenosine, reference compound]
DNA tail length: % of cells <= 25 μm (HL-60 cells [1]; adenosine alone): 98% <= 25 μm | % dATP (HL-60 cells [2]; adenosine alone): 70% | % dCTP (HL-60 cells [2]; adenosine alone): 64% | % apopt (HL-60 cells [3]; adenosine alone): 7% | % necro (HL-60 cells [3]; adenosine alone): 0% | % total death (HL-60 cells [3]; adenosine alone): 7% | % viable + apopt (HL-60 cells [3]; adenosine alone): 100% | viability at 48 h, 800 µM (in vitro): 93% | % ATP (HL-60 cells [4]; adenosine alone (800 μM)): 85%

CC1=C(/C=C/C(C)=C/C=C/C(C)=C/C(=O)O)C(C)(C)CCC1 [ATRA, all-trans retinoic acid, reference compound]
% apoptotic cells (HL-60 cells [3]; 120 μM ATRA): 30% | % necrotic cells (HL-60 cells [3]; 120 μM ATRA): 45%

NC(=O)c1cccc([C@@H]2O[C@H](CO)[C@@H](O)[C@H]2O)c1 [BR, benzamide riboside]
cell death and gelsolin cleavage (HL-60 cells [5]; 0.5 μM, 1 μM or 2 μM BR, 24 hours): neither induced cell death, nor gelosin cleavage | Caspase 3 activation (p20 kD fragment) (HL-60 cells [5]; 5 μM and 10 μM BR, 24 hours): Caspase 3 activation culminated | cell death mode; gelsolin (41 kD) and PARP (89 kD) fragmentation (HL-60 cells [5]; 5 μM or 10 μM BR, 24 hours): caused apoptosis | cell death mode; PARP and gelsolin fragmentation (HL-60 cells [5]; 20 μM BR, 24 hours): increase of the fraction of necrotic cells | Caspase 3 activation (p20 kD fragment) (HL-60 cells [5]; 20 μM or 40 μM BR +/- 800 μM adenosine): activation was inhibited | DNA single strand breaks (HL-60 cells [1]; 5 μM BR): but not with 5 μM BR treatment | DNA tail length: % of cells <= 25 μm (HL-60 cells [1]; 20 μM BR +/- adenosine): 50% <= 25 μm | DNA double strand breaks (HL-60 cells [1]; 20 μM BR, 8 hours, neutral pH (7.5)): induced DNA double strand breaks | DNA single strand breaks (HL-60 cells [1]; 20 μM BR): DNA single strand breaks occurred | concentration range of strong oncolytic activity (leukemia cells): 5 to 10 µM | % dATP (HL-60 cells [2]; 5 μM BR +/- adenosine): 81% | % dCTP (HL-60 cells [2]; 5 μM BR +/- adenosine): 89% | dGTP levels, % of control (HL-60 cells [2]; 5 μM or 20 μM BR): approximately 53% | % dATP (HL-60 cells [2]; 20 μM BR +/- adenosine): 33% | % dCTP (HL-60 cells [2]; 20 μM BR +/- adenosine): 37% | % apopt (HL-60 cells [3]; 5 μM BR +/- adenosine): 69% | % necro (HL-60 cells [3]; 5 μM BR +/- adenosine): 2% | % total death (HL-60 cells [3]; 5 μM BR +/- adenosine): 71% | % viable + apopt (HL-60 cells [3]; 5 μM BR +/- adenosine): 98% | % apopt (HL-60 cells [3]; 20 μM BR +/- adenosine): 30% | % necro (HL-60 cells [3]; 20 μM BR +/- adenosine): 51% | % total death (HL-60 cells [3]; 20 μM BR +/- adenosine): 81% | % viable + apopt (HL-60 cells [3]; 20 μM BR +/- adenosine): 49% | cell morphology by electron microscopy (HL-60 cells [6]; 5 μM BR): electron dense chromatin marginated at the nuclear envelope as a hallmark of apoptosis | cell morphology by electron microscopy (HL-60 cells [6]; 20 μM BR): typical necrotic morphology | % ATP (HL-60 cells [4]; 5 μM BR +/- adenosine (800 μM)): 50% | % ATP (HL-60 cells [4]; 20 μM BR +/- adenosine (800 μM)): 3% and 2.7%
